Results reported in patent publication US8933105B2, “Pyrrole compounds” (Takeda Pharmaceutical Company Limited, priority 2007, dated 2015).
Structures can show the parent of a compound that is named as a salt.

Experiments:
HepG2 = assay: ATP content test (intracellular ATP content, ATPLite); type: cell-based, Human; details: HepG2, 30 μM, culture for one day, relative value to control (without addition of drug)
Method: (§1) Human liver cancer-derived cell line HepG2 (ATCC No. HB-8065) was passaged using Dulbecco's Modified Eagle medium (DMEM; Invitrogen) containing 10% fetal bovine serum (FBS; TRACE SCIENTIFIC LTD.), 1 mmol/L sodium pyruvate (Invitrogen), 2 mmol/L L-glutamine (Invitrogen), 50 IU/mL penicillin (Invitrogen) and 50 μg/mL streptomycin (Invitrogen) at 5% CO2, 37° C. The test reagent was prepared with DMSO to 10 mM, and further diluted with DMEM medium containing 0.5% FBS, 1 mmol/L sodium pyruvate, 2 mmol/L L-glutamine, 50 IU/mL penicillin and 50 μg/mL streptomycin to a final concentration of DMSO of 0.1%. HepG2 (2×10^4 cells/well) was cultured on a 96 well white plate (Costar) with the test reagent at 5% CO2, 37° C. After culture for one day, the intracellular ATP content was measured using ATPLite™ (PerkinElmer Life Sciences). The results are shown in Table 26 (n≧3, average value±SD) as a relative value (%) to control (without addition of drug) at 30 μM.

Caspase-3/7 = Caspase-3/7 activity test (Caspase-Glo 3/7 Assay); type: cell-based, Human; details: HepG2, 30 μM, culture for one day, relative to maximum with Staurosporine (100%) and no test reagent (0%)
Method: as §1
Caspase-3/7 Activity Test
The Caspase-3/7 activity in the cells cultured for one day by a method similar to that in Experimental Example 2 was measured using Caspase-Glo 3/7 Assay (Promega). The results are shown in Table 26 (n≧3, average value±SD) as relative activity (%) of each reagent based on the maximum value of Caspase-3/7 activity when exposed to Staurosporine (100%), and the activity without addition of a test reagent (0%).

[1] = biological target: T1, proton, potassium-adenosine triphosphatase (H+,K+-ATPase) (Sus scrofa, UniProt P19156); assay: Proton potassium-adenosine triphosphatase (H+,K+-ATPase) inhibitory activity test; type: biochemical; details: swine gastric microsomal fraction, pH 6.5, 37° C.
T1 construct: a gastric mucous membrane microsomal fraction was prepared from the stomach of swine; from tissue; host or cells: swine stomach, gastric mucous membrane microsomal fraction
T1 sequence (P19156 2-1034 limits assumed): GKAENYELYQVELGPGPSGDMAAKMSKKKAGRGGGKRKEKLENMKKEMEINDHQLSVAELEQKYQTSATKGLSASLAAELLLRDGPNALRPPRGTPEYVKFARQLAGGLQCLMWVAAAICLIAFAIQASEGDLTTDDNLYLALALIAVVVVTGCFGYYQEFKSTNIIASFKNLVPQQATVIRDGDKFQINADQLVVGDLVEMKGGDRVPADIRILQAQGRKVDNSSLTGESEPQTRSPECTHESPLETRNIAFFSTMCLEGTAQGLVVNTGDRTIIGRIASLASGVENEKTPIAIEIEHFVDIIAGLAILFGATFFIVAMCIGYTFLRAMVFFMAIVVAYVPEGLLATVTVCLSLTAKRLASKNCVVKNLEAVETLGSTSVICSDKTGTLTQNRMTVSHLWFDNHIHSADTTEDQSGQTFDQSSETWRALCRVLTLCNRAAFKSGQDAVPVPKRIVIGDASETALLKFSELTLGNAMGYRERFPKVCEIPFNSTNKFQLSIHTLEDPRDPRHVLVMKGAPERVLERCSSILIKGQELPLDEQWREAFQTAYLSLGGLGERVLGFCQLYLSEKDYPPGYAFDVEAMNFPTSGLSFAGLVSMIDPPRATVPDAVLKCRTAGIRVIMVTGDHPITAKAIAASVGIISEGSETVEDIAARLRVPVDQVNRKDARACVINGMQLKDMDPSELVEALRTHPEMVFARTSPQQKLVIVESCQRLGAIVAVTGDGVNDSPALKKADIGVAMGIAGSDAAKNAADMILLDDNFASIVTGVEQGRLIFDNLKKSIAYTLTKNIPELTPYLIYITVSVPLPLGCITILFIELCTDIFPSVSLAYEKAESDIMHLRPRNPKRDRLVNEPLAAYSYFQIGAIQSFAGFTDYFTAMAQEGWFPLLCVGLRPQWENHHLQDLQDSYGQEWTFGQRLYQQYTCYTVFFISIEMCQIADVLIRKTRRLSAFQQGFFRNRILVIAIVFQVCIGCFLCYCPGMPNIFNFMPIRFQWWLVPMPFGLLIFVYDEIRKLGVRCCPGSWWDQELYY
T1 sequence (P18434 whole entry partner): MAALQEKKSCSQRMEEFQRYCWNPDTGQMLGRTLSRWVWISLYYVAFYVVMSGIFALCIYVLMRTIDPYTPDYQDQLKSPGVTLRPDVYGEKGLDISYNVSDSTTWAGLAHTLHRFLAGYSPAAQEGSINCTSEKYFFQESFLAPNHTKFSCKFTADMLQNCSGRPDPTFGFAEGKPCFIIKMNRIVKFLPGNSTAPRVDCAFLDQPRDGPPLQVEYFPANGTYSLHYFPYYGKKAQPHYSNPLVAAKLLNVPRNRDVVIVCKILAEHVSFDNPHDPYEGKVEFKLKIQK
Method: Proton Potassium-Adenosine Triphosphatase (H^+,K^+-ATPase) Inhibitory Activity Test
According to the method [Biochim. Biophys. Acta, 728, 31 (1983)] of Wallmark et al., a gastric mucous membrane microsomal fraction was prepared from the stomach of swine. First, the stomach was removed, washed with tap water, immersed in 3 mol/L brine, and the surface of the mucous membrane was wiped with a paper towel. The gastric mucous membrane was detached, chopped, and homogenized in a 0.25 mol/L saccharose solution (pH 6.8) containing 1 mmol/L EDTA and 10 mmol/L tris-hydrochloric acid using polytron (Kinematica). The obtained homogenate was centrifuged at 20,000×g for 30 min and the supernatant was centrifuged at 100,000×g for 90 min. The precipitate was suspended in 0.25 mol/L saccharose solution, superimposed on a 0.25 mol/L saccharose solution containing 7.5% Ficoll, and centrifuged at 100,000×g for 5 hr. The fraction containing the interface between the both layers was recovered, and centrifugally washed with 0.25 mol/L saccharose solution.
The obtained microsomal fraction was used as a proton, potassium-adenosine triphosphatase standard product.
To 40 μL of a 50 mmol/L HEPES-tris buffer (5 mmol/L magnesium chloride, 10 mmol/L potassium chloride, 10 μmol/L valinomycin, pH=6.5) containing 2.5 μg/mL (based on the protein concentration) of the enzyme standard product was added a test compound (5 μL) dissolved in a 10% aqueous dimethyl sulfoxide solution, and the mixture was incubated at 37° C. for 30 min. The enzyme reaction was started by adding 5 μL of a 2 mmol/L adenosine triphosphate tris salt solution (50 mmol/L HEPES-tris buffer (5 mmol/L magnesium chloride, pH 6.5)). The enzyme reaction was carried out at 37° C. for 20 min, and 15 μL of a malachite green solution (0.12% malachite green solution in sulfuric acid (2.5 mol/L), 7.5% ammonium molybdate and 11% Tween 20 were mixed at a ratio of 100:25:2) was added to quench the reaction. After allowing to stand at room temperature for 15 min, the resulting reaction product of inorganic phosphorus with malachite green was calorimetrically determined at a wavelength of 610 nm. In addition, the amount of the inorganic phosphoric acid in the reaction solution free of potassium chloride was measured in the same manner, which was subtracted from the inorganic phosphoric acid amount in the presence of potassium chloride to determine the proton, potassium-adenosine triphosphatase activity. The inhibitory rate (%) was determined from the activity value of the control and the activity values of various concentrations of the test compound, and the 50% inhibitory concentration (IC50) of the proton, potassium-adenosine triphosphatase was determined.

| Structure (SMILES) | ATP content (%, 30 μM) (HepG2) [%] | Caspase-3/7 activity (%, 30 μM) (Caspase-3/7) [%] | IC50 [1] [nM] |
| --- | --- | --- | --- |
| CNCc1cc(-c2cccnc2F)n(S(=O)(=O)c2ccccc2)c1.O=C(O)/C=C/C(=O)O [Example 1, 1-[5-(2-fluoropyridin-3-yl)-1-(phenylsulfonyl)-1H-pyrrol-3-yl]-N-methylmethanamine fumarate] | 88.1 | −1.3 | 26 |
| CNCc1cc(-c2cccnc2F)n(S(=O)(=O)c2ccco2)c1.O=C(O)/C=C/C(=O)O [Example 3, 1-[5-(2-fluoropyridin-3-yl)-1-(2-furylsulfonyl)-1H-pyrrol-3-yl]-N-methylmethanamine fumarate] | 91.4 | −0.5 | 59 |
| CNCc1cn(S(=O)(=O)c2cccnc2)c(-c2cccnc2F)c1F.O=C(O)/C=C/C(=O)O [Example 8, 1-[4-fluoro-5-(2-fluoropyridin-3-yl)-1-(pyridin-3-ylsulfonyl)-1H-pyrrol-3-yl]-N-methylmethanamine fumarate] | 103.9 | 0.2 | 90 |
| CNCc1cc(-c2ccc(C)nc2F)n(S(=O)(=O)c2cccnc2)c1.O=C(O)/C=C/C(=O)O [Example 13, 1-[5-(2-fluoro-6-methylpyridin-3-yl)-1-(pyridin-3-ylsulfonyl)-1H-pyrrol-3-yl]-N-methylmethanamine fumarate] | 87.7 | 0.2 | 120 |
| CNCc1cc(-c2cccnc2Cl)n(S(=O)(=O)c2ccccc2)c1.Cl [Example 15, 1-[5-(2-chloropyridin-3-yl)-1-(phenylsulfonyl)-1H-pyrrol-3-yl]-N-methylmethanamine hydrochloride] | 90.4 | −0.8 | 43 |
| CNCc1cc(-c2cccnc2C#N)n(S(=O)(=O)c2ccccc2)c1.Cl [Example 16, 3-{4-[(methylamino)methyl]-1-(phenylsulfonyl)-1H-pyrrol-2-yl}pyridine-2-carbonitrile hydrochloride] | 97.1 | 0 | 120 |
| CNCc1cc(-c2cccnc2F)n(S(=O)(=O)c2ccc(F)cc2)c1.O=C(O)/C=C/C(=O)O [Example 20, 1-{1-[(4-fluorophenyl)sulfonyl]-5-(2-fluoropyridin-3-yl)-1H-pyrrol-3-yl}-N-methylmethanamine fumarate] | 86.6 | −0.2 | 57 |
| CNCc1cn(S(=O)(=O)c2ccccc2)c(-c2cccnc2F)c1C.Cl [Example 26, 1-[5-(2-fluoropyridin-3-yl)-4-methyl-1-(phenylsulfonyl)-1H-pyrrol-3-yl]-N-methylmethanamine hydrochloride] | 85.2 | −0.2 | 110 |
| CNCc1cn(S(=O)(=O)c2cccnc2)c(-c2cccnc2F)c1F [Example 28, 1-[4-fluoro-5-(2-fluoropyridin-3-yl)-1-(pyridin-3-ylsulfonyl)-1H-pyrrol-3-yl]-N-methylmethanamine 0.5 fumarate] |  |  | 71 |
| CNCc1cn(S(=O)(=O)c2ccccc2)c(-c2cccnc2F)c1F [Example 30, 1-[4-fluoro-5-(2-fluoropyridin-3-yl)-1-(phenylsulfonyl)-1H-pyrrol-3-yl]-N-methylmethanamine 0.5 fumarate] | 97.3 | −0.6 | 26 |
| CNCc1cn(S(=O)(=O)c2cccnc2)c(-c2cccnc2Cl)c1F.O=C(O)/C=C/C(=O)O [Example 38, 1-[5-(2-chloropyridin-3-yl)-4-fluoro-1-(pyridin-3-ylsulfonyl)-1H-pyrrol-3-yl]-N-methylmethanamine fumarate] | 93.4 | −0.4 | 130 |
| CNCc1cn(S(=O)(=O)c2cccc(CO)c2)c(-c2cccnc2F)c1F [Example 48, [3-({3-fluoro-2-(2-fluoropyridin-3-yl)-4-[(methylamino)methyl]-1H-pyrrol-1-yl}sulfonyl)phenyl]methanol 0.5 fumarate] | 92.7 | −0.8 | 130 |
| CNCc1cn(S(=O)(=O)c2ccoc2)c(-c2cccnc2F)c1F.Cl [Example 50, 1-[4-fluoro-5-(2-fluoropyridin-3-yl)-1-(3-furylsulfonyl)-1H-pyrrol-3-yl]-N-methylmethanamine hydrochloride] | 99.8 | −0.3 | 60 |
| CNCc1cc(-c2cccnc2Cl)n(S(=O)(=O)c2cccc(C#N)c2)c1.O=C(O)/C=C/C(=O)O [Example 54, 3-({2-(2-chloropyridin-3-yl)-4-[(methylamino)methyl]-1H-pyrrol-1-yl}sulfonyl)benzonitrile fumarate] | 96.8 | −0.4 | 65 |
| CNCc1cn(S(=O)(=O)c2cnn(C)c2)c(-c2cccnc2F)c1Cl.O=C(O)/C=C/C(=O)O [Example 58, 1-{4-chloro-5-(2-fluoropyridin-3-yl)-1-[(1-methyl-1H-pyrazol-4-yl)sulfonyl]-1H-pyrrol-3-yl}-N-methylmethanamine fumarate] | 98.0 | −1.9 | 300 |
| CNCc1cn(S(=O)(=O)c2ccc(CO)o2)c(-c2cccnc2F)c1F [Example 64, [5-({3-fluoro-2-(2-fluoropyridin-3-yl)-4-[(methylamino)methyl]-1H-pyrrol-1-yl}sulfonyl)-2-furyl]methanol 0.5 fumarate] | 102.2 | −0.1 | 190 |
| CNCc1cn(S(=O)(=O)c2ccc(CF)o2)c(-c2cccnc2F)c1F.O=C(O)/C=C/C(=O)O [Example 66, 1-[4-fluoro-1-{[5-(fluoromethyl)-2-furyl]sulfonyl}-5-(2-fluoropyridin-3-yl)-1H-pyrrol-3-yl]-N-methylmethanamine fumarate] | 94.8 | −0.2 | 140 |
| CNCc1cn(S(=O)(=O)c2ccc(C#N)o2)c(-c2cccnc2F)c1F.O=C(O)/C=C/C(=O)O [Example 68, 5-({3-fluoro-2-(2-fluoropyridin-3-yl)-4-[(methylamino)methyl]-1H-pyrrol-1-yl}sulfonyl)-2-furonitrile fumarate] | 83.4 | 3.6 | 170 |
| CNCc1cn(S(=O)(=O)c2ccoc2C)c(-c2cccnc2F)c1F.Cl [Example 72, 1-{4-fluoro-5-(2-fluoropyridin-3-yl)-1-[(2-methylfuran-3-yl)sulfonyl]-1H-pyrrol-3-yl}-N-methylmethanamine hydrochloride] | 88.1 | −0.5 | 93 |
